Experimental findings from publication PMC6378217, “The lysyl oxidase like 2/3 enzymatic inhibitor, PXS‐5153A, reduces crosslinks and ameliorates fibrosis” (Journal of Cellular and Molecular Medicine, 2018) are described below.

The target in one experiment is Adrenergic β1 (Homo sapiens, UniProt P08588). Kind of experiment: Eurofins Hit Profiling Screen. It is filed as binding. The settings on record: 10 μmol/L.
The target of another experiment is T1, Recombinant dog LOXL2 (Canis lupus familiaris, UniProt A0A8I3P9Y5).
T1 construct: made in house; host or cells: HEK-293 clones provided by Dr. Fernando Rodríguez Pascual
As to the kind of experiment: Amplex-Red fluorometric enzymatic activity assay, recombinant dog LOXL2. Format: biochemical. The settings on record: 30 minute pre-incubation; average of at least three experiments. As for the experimental part: (§1) The measurement of the enzymatic activity of all lysyl oxidase family members was based on the detection of hydrogen peroxide with an Amplex‐Red oxidation assay, as described in Zhou et al26 Recombinant human semicarbazide sensitive amine oxidase (SSAO/VAP1), diamine oxidase (DAO) and monoamine oxidases A and B (MAO‐A and MAO‐B) assays were performed as previously described.27 For detailed enzymatic procedures, see supporting information.
(§2) The measurement of the enzymatic activity of all lysyl oxidase family members was based on the detection of hydrogen peroxide with an Amplex-Red oxidation assay, as described in Zhou et al.[1]; miniaturised in 384 well format, with the appropriate combination of substrate and assay buffer for each individual enzyme. After a 30 minute pre-incubation of the enzyme at 37 °C with the test compound (or with different incubation times for the time-dependency assay), one volume of reaction mixture containing 120 μM Amplex Red (AR) (Life Technologies), 1.5 U/mL horseradish peroxidase (HRP) (Sigma-Aldrich) and the specific substrate was added to each sample. The relative fluorescence units (RFU) were then measured every 2.5 minutes for 30 minutes at 37°C, excitation 565 nm and emission 590, on a BMG Clariostar Microplate Reader. […]

Another experiment addresses T2, Recombinant mouse LOXL2 (Mus musculus, UniProt P58022).
T2 construct: purchased R&D Systems
As to the kind of experiment: Amplex-Red fluorometric enzymatic activity assay, recombinant mouse LOXL2. Format: biochemical. The note with it: 30 minute pre-incubation; average of at least three experiments. As for the experimental part:
as §1, §2

For another experiment, the target named is Muscarinic M2 (Homo sapiens, UniProt P08172). Kind of experiment: Eurofins Hit Profiling Screen. It is filed as binding. The note with it: 10 μmol/L.
A further experiment addresses Potassium Channel [KATP] (Cricetus cricetus, UniProt Q09427). Kind of experiment: Eurofins Hit Profiling Screen. Format: binding. The note with it: 10 μmol/L. As for the experimental part: PXS‐5153A was tested at Eurofins Cerep Panlabs Taiwan, Ltd in the “Hit Profiling Screen”, which tested 30 different targets.
Eurofins Hit Profiling Screen, was performed to evaluate the off -target profile of PXS-5153A. Biochemical assay results are presented as the percent inhibition of specific binding or activity.

For experiment [1], the system named is NASH-induced liver disease. Kind of experiment: NASH-induced liver disease (streptozotocin/high fat diet, STAM). Format: in vivo, C57/BL6 mice. How it is done: Pellet then underwent acid hydrolysis in 6 mol/L HCl at 100°C for 24 hours. Hydroxyproline and crosslinks were extracted from the hydrolysate using an automated solid phase extraction system (Gilson […] system). After extraction and drying, hydroxyproline and crosslinks were analysed by UHPLC-ESI-MS/MS on a Thermo Dionex UHPLC and TSQ Endura triple quad mass spectrometer. Total protein was quantified in the samples using a commercially available kit (QuickZyme Biosciences, Leiden, The Netherlands). For detailed procedures, see supporting information. The study was performed by Stelic MC, Inc. (Tokyo, Japan) with approval from local ethics committee. NASH was established in male C57/BL6 mice by a single subcutaneous injection of 200 μg streptozotocin (Sigma-Aldrich) after birth and with a high fat diet (CLEA Japan) ad libitum after 4 weeks of age (day 28 ± 2) until 14 weeks of age. Mice were orally administered with 10 mg/kg PXS-5153A once daily from 8 to 14 weeks of age. ALT levels were assessed in the plasma. One lobe of the liver tissue was fixed in 10% formalin, stained for Sirius red and the percentage coverage area was measured; HE staining was performed to estimate non-alcoholic fatty liver disease (NAFLD) activity score according to the criteria of Kleiner et al28 The remainder of the liver was snap frozen and used for protein, hydroxyproline and crosslink analysis.

Another experiment has as its target T3, LOXL2 (Homo sapiens, UniProt Q9Y4K0).
T3 sequence (Q9Y4K0 26-774): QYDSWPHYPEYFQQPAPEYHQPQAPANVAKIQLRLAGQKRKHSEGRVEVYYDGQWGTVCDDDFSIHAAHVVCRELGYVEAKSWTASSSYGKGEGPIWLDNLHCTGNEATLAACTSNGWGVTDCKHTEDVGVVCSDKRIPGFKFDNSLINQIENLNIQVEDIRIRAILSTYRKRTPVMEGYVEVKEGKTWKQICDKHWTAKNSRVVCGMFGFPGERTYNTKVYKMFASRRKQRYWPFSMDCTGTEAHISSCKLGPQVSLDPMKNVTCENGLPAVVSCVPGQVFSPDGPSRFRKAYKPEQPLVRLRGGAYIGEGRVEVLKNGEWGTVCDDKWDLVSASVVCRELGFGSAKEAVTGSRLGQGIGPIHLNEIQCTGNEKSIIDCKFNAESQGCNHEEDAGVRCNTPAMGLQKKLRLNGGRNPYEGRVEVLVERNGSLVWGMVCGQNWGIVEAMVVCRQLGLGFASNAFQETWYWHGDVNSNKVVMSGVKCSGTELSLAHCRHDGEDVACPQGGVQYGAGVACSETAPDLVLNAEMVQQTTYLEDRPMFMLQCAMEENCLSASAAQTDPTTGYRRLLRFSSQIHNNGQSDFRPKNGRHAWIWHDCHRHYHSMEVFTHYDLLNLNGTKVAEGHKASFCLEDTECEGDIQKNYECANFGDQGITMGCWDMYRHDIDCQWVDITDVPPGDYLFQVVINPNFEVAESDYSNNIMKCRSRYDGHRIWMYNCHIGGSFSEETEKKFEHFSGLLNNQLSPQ
As to the kind of experiment: Amplex-Red fluorometric enzymatic activity assay, recombinant human LOXL2. Format: biochemical. Also on record: purchased R&D Systems. How it is done:
as §1
The measurement of the enzymatic activity of all lysyl oxidase family members was based on the detection of hydrogen peroxide with an Amplex-Red oxidation assay, as described in Zhou et al.[1]; miniaturised in 384 well format, with the appropriate combination of substrate and assay buffer for each individual enzyme. After a 30 minute pre-incubation of the enzyme at 37 °C with the test compound (or with different incubation times for the time-dependency assay), one volume of reaction mixture containing 120 μM Amplex Red (AR) (Life Technologies), 1.5 U/mL horseradish peroxidase (HRP) (Sigma-Aldrich) and the specific substrate was added to each sample. The relative fluorescence units (RFU) were then measured every 2.5 minutes for 30 minutes at 37°C, excitation 565 nm and emission 590, on a BMG Clariostar Microplate Reader. All the substrates were used at concentrations corresponding to their Km towards the corresponding enzyme, or with a range of different concentrations for the substrate competition experiments.
Lysyl oxidases assay buffer contained 1.2 M urea, 50 mM sodium borate buffer, pH 8.2 and 100 µM β-aminoproprionitrile (BAPN, Sigma-Aldrich) was used for low control.
Recombinant human LOXL1 was expressed and purified from cDNA (GeneArt) and 10 mM putrescine was used as substrate. Recombinant human and mouse LOXL2 (R&D Systems) were challenged with 5 mM putrescine (Sigma-Aldrich) as the substrate. Rat and dog recombinant LOXL2 were amplified and purified in house from HEK-293 clones kindly provided by Dr. Fernando Rodríguez Pascual, Madrid University, and used in the same conditions as for the human form. 2 mM putrescine was used as the substrate for recombinant human LOXL3 (R&D Systems) and LOXL4 (Dr. Fernando Rodríguez Pascual, university of Madrid, Spain) assays.

Experiment [2] addresses Serotonin (5-Hydroxytryptamine) 5-HT2B (Homo sapiens, UniProt P41595). As to the kind of experiment: Eurofins Hit Profiling Screen. The settings on record: 10 μmol/L. Format: binding.
[3] abbreviates: 30 minute pre-incubation at 37 °C, average of at least three experiments.

T2 sequence (P58022 26-776): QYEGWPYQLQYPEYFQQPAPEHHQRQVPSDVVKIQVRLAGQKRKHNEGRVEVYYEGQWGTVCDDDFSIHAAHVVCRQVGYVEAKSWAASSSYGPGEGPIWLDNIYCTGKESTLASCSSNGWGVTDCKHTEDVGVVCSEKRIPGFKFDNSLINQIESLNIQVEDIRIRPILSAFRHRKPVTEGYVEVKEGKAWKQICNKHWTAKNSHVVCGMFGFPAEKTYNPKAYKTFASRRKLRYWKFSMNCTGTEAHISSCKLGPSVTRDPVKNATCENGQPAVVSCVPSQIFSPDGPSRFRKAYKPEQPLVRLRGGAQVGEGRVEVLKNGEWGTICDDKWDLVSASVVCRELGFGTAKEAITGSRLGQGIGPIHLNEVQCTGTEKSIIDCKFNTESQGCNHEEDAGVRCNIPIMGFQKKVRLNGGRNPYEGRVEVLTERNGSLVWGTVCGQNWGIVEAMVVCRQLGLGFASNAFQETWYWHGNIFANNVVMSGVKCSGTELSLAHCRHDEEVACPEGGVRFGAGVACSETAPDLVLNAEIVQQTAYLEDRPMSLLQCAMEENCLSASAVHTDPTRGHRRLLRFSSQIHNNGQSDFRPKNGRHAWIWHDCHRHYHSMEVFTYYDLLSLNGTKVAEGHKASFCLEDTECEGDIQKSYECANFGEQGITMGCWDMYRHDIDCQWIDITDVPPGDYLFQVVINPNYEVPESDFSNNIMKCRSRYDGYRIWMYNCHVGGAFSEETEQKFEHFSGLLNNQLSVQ
T1 sequence (A0A8I3P9Y5 1-777): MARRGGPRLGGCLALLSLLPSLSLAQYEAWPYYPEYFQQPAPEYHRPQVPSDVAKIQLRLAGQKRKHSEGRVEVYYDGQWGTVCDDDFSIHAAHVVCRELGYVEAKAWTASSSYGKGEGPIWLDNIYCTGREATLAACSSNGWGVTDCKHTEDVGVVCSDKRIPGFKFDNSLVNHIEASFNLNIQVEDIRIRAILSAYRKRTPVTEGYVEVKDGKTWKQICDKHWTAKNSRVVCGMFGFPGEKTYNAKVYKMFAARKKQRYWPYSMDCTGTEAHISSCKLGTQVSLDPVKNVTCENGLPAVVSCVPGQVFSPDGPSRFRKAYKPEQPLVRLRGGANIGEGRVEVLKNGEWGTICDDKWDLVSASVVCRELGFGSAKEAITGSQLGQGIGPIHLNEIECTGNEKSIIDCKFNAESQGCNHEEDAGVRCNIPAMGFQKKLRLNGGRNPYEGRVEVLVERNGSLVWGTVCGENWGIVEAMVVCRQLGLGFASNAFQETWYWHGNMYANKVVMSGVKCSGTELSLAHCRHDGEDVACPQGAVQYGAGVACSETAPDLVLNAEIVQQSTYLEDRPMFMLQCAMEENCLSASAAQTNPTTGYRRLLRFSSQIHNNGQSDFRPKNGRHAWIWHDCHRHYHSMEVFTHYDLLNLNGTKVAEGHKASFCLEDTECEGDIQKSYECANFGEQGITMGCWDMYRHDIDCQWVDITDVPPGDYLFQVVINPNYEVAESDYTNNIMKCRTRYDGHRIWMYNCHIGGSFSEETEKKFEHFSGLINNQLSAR
Chain of Muscarinic M2 (P08172 whole entry): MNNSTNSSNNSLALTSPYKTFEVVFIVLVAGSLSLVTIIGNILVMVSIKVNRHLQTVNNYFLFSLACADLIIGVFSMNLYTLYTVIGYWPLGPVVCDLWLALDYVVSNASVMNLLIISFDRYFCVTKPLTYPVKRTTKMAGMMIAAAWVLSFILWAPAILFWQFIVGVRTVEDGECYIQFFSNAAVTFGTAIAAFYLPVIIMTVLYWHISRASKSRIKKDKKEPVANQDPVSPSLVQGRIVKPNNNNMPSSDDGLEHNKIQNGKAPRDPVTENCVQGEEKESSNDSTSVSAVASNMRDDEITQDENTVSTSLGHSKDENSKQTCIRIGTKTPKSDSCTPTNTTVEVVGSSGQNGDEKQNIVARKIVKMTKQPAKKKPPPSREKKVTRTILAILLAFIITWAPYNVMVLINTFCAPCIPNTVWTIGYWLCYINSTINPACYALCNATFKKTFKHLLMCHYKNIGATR
Chain of Adrenergic β1 (P08588 whole entry): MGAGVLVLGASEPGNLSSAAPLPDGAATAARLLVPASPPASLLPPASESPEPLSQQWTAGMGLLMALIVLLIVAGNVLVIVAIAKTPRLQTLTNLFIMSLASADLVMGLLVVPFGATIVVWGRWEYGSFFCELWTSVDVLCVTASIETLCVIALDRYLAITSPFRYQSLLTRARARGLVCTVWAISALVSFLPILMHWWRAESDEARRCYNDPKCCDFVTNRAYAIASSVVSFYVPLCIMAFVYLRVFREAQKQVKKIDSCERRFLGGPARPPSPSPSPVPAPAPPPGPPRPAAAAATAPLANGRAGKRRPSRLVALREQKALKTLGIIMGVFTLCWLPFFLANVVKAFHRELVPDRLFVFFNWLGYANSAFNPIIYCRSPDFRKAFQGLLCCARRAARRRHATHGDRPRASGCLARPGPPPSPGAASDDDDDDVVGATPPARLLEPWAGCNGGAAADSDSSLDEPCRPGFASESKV
Chain of Potassium Channel [KATP] (Q09427 whole entry): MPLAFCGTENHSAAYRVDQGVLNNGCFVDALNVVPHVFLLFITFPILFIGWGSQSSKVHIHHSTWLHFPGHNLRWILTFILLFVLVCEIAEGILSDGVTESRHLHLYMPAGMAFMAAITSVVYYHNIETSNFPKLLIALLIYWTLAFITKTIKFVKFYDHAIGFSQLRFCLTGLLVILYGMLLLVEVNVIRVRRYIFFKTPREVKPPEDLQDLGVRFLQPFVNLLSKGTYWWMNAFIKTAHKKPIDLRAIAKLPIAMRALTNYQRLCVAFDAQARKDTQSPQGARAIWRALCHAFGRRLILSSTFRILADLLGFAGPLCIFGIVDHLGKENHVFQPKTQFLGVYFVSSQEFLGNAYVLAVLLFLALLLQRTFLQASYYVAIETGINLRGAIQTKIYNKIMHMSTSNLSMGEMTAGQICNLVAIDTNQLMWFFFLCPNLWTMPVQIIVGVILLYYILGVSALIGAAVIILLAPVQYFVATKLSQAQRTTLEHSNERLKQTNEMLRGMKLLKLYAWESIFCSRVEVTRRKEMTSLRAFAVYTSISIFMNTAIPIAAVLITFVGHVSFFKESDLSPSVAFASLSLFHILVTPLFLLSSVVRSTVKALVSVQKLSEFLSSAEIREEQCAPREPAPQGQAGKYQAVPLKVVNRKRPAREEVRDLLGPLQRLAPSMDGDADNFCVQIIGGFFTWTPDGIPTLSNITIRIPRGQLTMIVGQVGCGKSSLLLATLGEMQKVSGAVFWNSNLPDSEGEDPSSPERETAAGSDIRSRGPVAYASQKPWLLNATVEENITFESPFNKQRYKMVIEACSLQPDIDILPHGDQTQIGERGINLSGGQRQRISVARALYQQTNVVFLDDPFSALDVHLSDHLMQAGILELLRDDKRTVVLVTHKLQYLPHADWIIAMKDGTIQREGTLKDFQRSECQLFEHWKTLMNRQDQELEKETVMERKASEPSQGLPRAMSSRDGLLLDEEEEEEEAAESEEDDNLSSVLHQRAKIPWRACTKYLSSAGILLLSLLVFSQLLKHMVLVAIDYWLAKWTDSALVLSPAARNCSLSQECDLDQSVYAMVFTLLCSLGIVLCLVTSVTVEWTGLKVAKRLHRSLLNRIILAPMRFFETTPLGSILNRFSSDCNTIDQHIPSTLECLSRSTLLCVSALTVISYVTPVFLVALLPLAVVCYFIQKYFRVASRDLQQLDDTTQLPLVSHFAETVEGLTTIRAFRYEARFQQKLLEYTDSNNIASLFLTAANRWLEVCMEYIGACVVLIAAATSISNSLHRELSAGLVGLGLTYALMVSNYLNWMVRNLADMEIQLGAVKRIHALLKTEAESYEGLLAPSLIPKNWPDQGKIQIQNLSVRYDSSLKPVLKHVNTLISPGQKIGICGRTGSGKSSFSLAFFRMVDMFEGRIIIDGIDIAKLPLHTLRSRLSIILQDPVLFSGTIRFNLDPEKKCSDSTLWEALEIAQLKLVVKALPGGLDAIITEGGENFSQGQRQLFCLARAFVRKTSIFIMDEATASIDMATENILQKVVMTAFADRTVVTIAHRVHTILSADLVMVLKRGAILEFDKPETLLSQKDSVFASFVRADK
Chain of Serotonin (5-Hydroxytryptamine) 5-HT2B (P41595 whole entry): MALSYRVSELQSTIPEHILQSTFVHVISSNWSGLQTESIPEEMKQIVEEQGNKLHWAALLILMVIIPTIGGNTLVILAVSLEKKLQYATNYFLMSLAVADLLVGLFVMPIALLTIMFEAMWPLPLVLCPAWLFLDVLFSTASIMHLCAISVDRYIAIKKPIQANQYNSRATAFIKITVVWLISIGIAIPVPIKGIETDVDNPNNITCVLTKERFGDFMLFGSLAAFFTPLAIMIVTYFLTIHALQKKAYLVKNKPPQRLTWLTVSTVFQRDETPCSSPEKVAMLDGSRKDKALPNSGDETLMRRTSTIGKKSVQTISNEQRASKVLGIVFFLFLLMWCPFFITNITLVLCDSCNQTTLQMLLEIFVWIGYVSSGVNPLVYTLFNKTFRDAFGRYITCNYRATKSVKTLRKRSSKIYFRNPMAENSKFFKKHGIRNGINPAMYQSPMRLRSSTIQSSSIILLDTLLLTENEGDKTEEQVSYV

Take `Cc1c(-c2cccc(S(=O)(=O)N(C)C)c2)c2ncccc2n1C/C(F)=C/CN.Cl.Cl` [PXS-5153A]: the % inhibition (usually the change of the read-out against control, counted positive when it falls) amounted to 3% on Adrenergic β1, 58% at Muscarinic M2, 8% at Potassium Channel [KATP] and 33% in experiment [2]. For the same molecule, the IC50 – broadly, the concentration at which inhibition is half-maximal – on Recombinant dog LOXL2 is 9 nM; at Recombinant mouse LOXL2, 21 nM; at LOXL2 (setting [3]), 21 nM. The entries for the “pIC50 ± SD” value at Recombinant dog LOXL2, at Recombinant mouse LOXL2 and on LOXL2 (setting [3]) were 8.04 ± 0.05, 7.7 ± 0.2 and 7.7 ± 0.23, respectively. Further, the “DHLNL” value in experiment [1] (10 mg/kg orally once daily) is “significantly reduced”. The “NASH disease score (NAFLD activity score)” value in experiment [1] (10 mg/kg orally once daily) was “reduction”. In addition, the “PYD” value in experiment [1] (10 mg/kg orally once daily) is recorded as “significantly reduced”. The “hepatocyte ballooning” value in experiment [1] (10 mg/kg orally once daily) is “significantly reduced”. Moreover, the “percentage coverage area by Picrosirius red staining” value in experiment [1] (10 mg/kg orally once daily) is listed as “reduced”. Moreover, the “HYP” value in experiment [1] (10 mg/kg orally once daily from 8 to 14 weeks of age) was “significantly reduction”. Further, the “selectivity for LOXL2 over LOX” value at LOXL2 (LOXL2 over LOX) is reported as greater than 40 fold. For the same molecule, the “selectivity for LOXL2 over LOXL1” value at LOXL2 (LOXL2 over LOXL1) is greater than 40 fold. For the same molecule, on LOXL2 (LOXL2 over other related amine oxidases), the “selectivity over other related amine oxidases” value is recorded as greater than 700 fold. Also, at LOXL2 (mechanism-based irreversible inhibition, enzyme not given), the “rate of inactivation (kinact)” value was 0.20 min⁻¹. In addition, the Ki on LOXL2 (mechanism-based irreversible inhibition, enzyme not given, read-out: apparent binding constant (Ki)) was 1010 nM.
